The target in the experiment is T1, collagenase (Collagenase Activity Assay Kit, Sigma-Aldrich).
T1 construct: gene colG
Briefly: FALGPA hydrolysis, absorbance at […] nm. The experiment is classed as biochemical. Conditions: substrate FALGPA; 96-well plate, 200 μL, followed for 20 min.

This passage reports IC50 results from article PMC8000889, “Phenolic Compounds from Leaves and Flowers of Hibiscus roseus: Potential Skin Cosmetic Applications of an Under-Investigated Species” (Plants, 2021).

The IC50 is the midpoint of a concentration-inhibition curve. Low readings indicate inhibition by little substance, high ones a need for much substance.

In brackets after ≈: the same amount, converted by molar mass.

Consider `O=c1c(O)c(-c2ccc(O)c(O)c2)oc2cc(O)cc(O)c12` [quercetin], for which the IC50 worked out at 5.6 ± 0.7 µg/mL (≈ 18.5 µM).
